Laboratory results published in patent US6335371B1, “Method for inducing cognition enhancement” (Orion Corporation, priority 2000, dated 2002).

Key:
[1] = Randomised placebo-controlled double-blind study, Udvalg for Kliniske Undersogelser (UKU) scale, concentration difficulties; assay type: in vivo; conditions: 5, 15, 30 mg b.i.d
Method: (§1) The cognition enhancement properties of deramciclane were studied in a randomised placebo-controlled double-blind study. The subjects were randomly assigned to four parallel groups to receive one tablet twice daily (b.i.d) of a placebo, 5 mg (=10 mg/day), 15 mg (=30 mg/day), or 30 mg (=60 mg/day) deramciclane. The study started with a one-week placebo run-in period, followed by an eight-week placebo-controlled active treatment and a two-week placebo washout period.
(§2) The efficacy of deramciclane on cognition enhancement was studied using the cognitive part of Hamilton Anxiety Scale (HAM-A) which consists of the concentration and memory items. Cognition enhancement was also assessed using Udvalg for Kliniske Undersogelser (UKU) scale.

[2] = Randomised placebo-controlled double-blind study, cognitive part of Hamilton Anxiety Scale (HAM-A; concentration and memory items); assay type: in vivo
Method: as §1, §2

CN(C)CCO[C@]1(c2ccccc2)C[C@H]2CC[C@]1(C)C2(C)C [deramciclane, (1R,2S,4R)-(−)-2-phenyl 2-(dimethylaminoethoxy)-1,7,7-trimethyl-bicyclo[2.2.1]heptane]
Trend analysis (dose-response relationship), concentration difficulties, UKU-scale [1]: statistically significant positive correlation
HAM-A Intellectual, cognitive: subjects rated Mild, number (%) ([2]; After 8 weeks, 5 mg b.i.d): 20 (47%)
HAM-A Intellectual, cognitive: subjects rated Moderate, number (%) ([2]; After 8 weeks, 5 mg b.i.d): 6 (14%)
HAM-A Intellectual, cognitive: subjects rated Not Present, number (%) ([2]; After 8 weeks, 5 mg b.i.d): 15 (35%)
HAM-A Intellectual, cognitive: subjects rated Severe, number (%) ([2]; After 8 weeks, 5 mg b.i.d): 2 (5%)
HAM-A Intellectual, cognitive: subjects rated Mild, number (%) ([2]; After 8 weeks, 15 mg b.i.d.): 19 (43%)
HAM-A Intellectual, cognitive: subjects rated Moderate, number (%) ([2]; After 8 weeks, 15 mg b.i.d.): 3 (7%)
HAM-A Intellectual, cognitive: subjects rated Not Present, number (%) ([2]; After 8 weeks, 15 mg b.i.d.): 21 (48%)
HAM-A Intellectual, cognitive: subjects rated Severe, number (%) ([2]; After 8 weeks, 15 mg b.i.d.): 1 (2%)
HAM-A Intellectual, cognitive: subjects rated Mild, number (%) ([2]; After 8 weeks, 30 mg b.i.d.): 14 (30%)
HAM-A Intellectual, cognitive: subjects rated Moderate, number (%) ([2]; After 8 weeks, 30 mg b.i.d.): 10 (22%)
HAM-A Intellectual, cognitive: subjects rated Not Present, number (%) ([2]; After 8 weeks, 30 mg b.i.d.): 22 (48%)
HAM-A Intellectual, cognitive: subjects rated Severe, number (%) ([2]; After 8 weeks, 30 mg b.i.d.): 0
HAM-A Intellectual, cognitive: subjects rated Mild, number (%) ([2]; Baseline, 5 mg b.i.d group): 17 (31%)
HAM-A Intellectual, cognitive: subjects rated Moderate, number (%) ([2]; Baseline, 5 mg b.i.d group): 33 (61%)
HAM-A Intellectual, cognitive: subjects rated Not Present, number (%) ([2]; Baseline, 5 mg b.i.d group): 3 (6%)
HAM-A Intellectual, cognitive: subjects rated Severe, number (%) ([2]; Baseline, 5 mg b.i.d group): 1 (2%)
HAM-A Intellectual, cognitive: subjects rated Mild, number (%) ([2]; Baseline, 15 mg b.i.d. group): 12 (24%)
HAM-A Intellectual, cognitive: subjects rated Moderate, number (%) ([2]; Baseline, 15 mg b.i.d. group): 35 (69%)
HAM-A Intellectual, cognitive: subjects rated Not Present, number (%) ([2]; Baseline, 15 mg b.i.d. group): 3 (6%)
HAM-A Intellectual, cognitive: subjects rated Severe, number (%) ([2]; Baseline, 15 mg b.i.d. group): 1 (2%)
HAM-A Intellectual, cognitive: subjects rated Mild, number (%) ([2]; Baseline, 30 mg b.i.d. group): 15 (28%)
HAM-A Intellectual, cognitive: subjects rated Moderate, number (%) ([2]; Baseline, 30 mg b.i.d. group): 28 (53%)
HAM-A Intellectual, cognitive: subjects rated Not Present, number (%) ([2]; Baseline, 30 mg b.i.d. group): 3 (6%)
HAM-A Intellectual, cognitive: subjects rated Severe, number (%) ([2]; Baseline, 30 mg b.i.d. group): 7 (13%)
Effect on cognition measured by the cognitive part of the HAM-A ([2]; eight-week treatment, 5, 15 or 30 mg b.i.d): improved the cognition
